Source: patent US6521268B2, “Antibacterial and anti-inflammatory compositions with Inula helenium L. extract and water soluble chitosan” (Jakwang Co., Ltd., priority 2001, dated 2003)

Test system: inflammation induced by methyl nicotinate, inner part of the upper arm
Assay: Anti-inflammatory effect test (anti-inflammation assay), chromameter "a" value
Format: in vivo, human
Experimental: The anti-inflammatory effect of the natural cell control carrier comprising 3:1 (wt/wt) water-soluble chitosan and elecampane extract according to the present invention was tested as follows. Twenty healthy male and female subjects with no experience of drug hypersensitivity or drug side effect were selected. Methyl nicotinate was used as an inflammation-inducing material. […] Firstly, the initial “a” value of the inner part of the upper arm was determined with a chromameter (Minolta, CR-300). Then, 1.0% aqueous solution of said composition and 0.1% indometacin aqueous solution were closely patched at the test part for 4 hr. After removing the patch, the test part was washed with pure water. After waiting for 1 hr for the temporary inflammation reaction to disappear, “a” value was measured again with the chromameter. After dropping 80 μL of methyl nicotinate diluted to 3 mM with pure water in a filter paper disk with 1 cm of diameter, it was applied to each test part for 1-2 min. After removing the filter paper disk, each test part was washed sufficiently with pure water. After 30 min, “a” value was measured with the chromameter. The anti-inflammatory effect of the natural cell control carrier according to the present invention, indometacin and methyl nicotinate was calculated from the “a” values.

COc1ccc2c(c1)c(CC(=O)O)c(C)n2C(=O)c1ccc(Cl)cc1 [indometacin]
Anti-Inflammatory Effect (%) (calculated from "a" values, 1.0% carrier or 0.1% indometacin aqueous solution): 41.14% | "a" Value (n = 20) (chromameter, 30 min after 3 mM methyl nicotinate, 4 hr patch pre-treatment (1.0% carrier or 0.1% indometacin aqueous solution)): 6.38
